The values that follow come from US20180304191A1, “METHOD FOR THE SELECTIVE REMOVAL OF HYDROGEN SULFIDE” (BASF SE, priority 2015, published 2018).

Data set [1] is described as follows: Dynamic viscosity (Anton Paar Stabinger SVM3000 viscometer). The class given is physicochemical. On the procedure:
The dynamic viscosities of various compounds were measured in a viscometer (Anton Paar Stabinger SVM3000 viscometer).
In addition, the dynamic viscosities of various absorbents (without acid gas loading) were measured in the same instrument.

Data set [2] in a line: pKA determination by titration with hydrochloric acid (pH at half-equivalence). Conditions: for pKA1: 1st dissociation stage; for pKA2: 2nd dissociation stage.
Excerpt: Measurement was accomplished using a thermostated closed jacketed vessel in which the liquid was blanketed with nitrogen. The Hamilton Polylite Plus 120 pH electrode was used, which was calibrated with pH 7 and pH 12 buffer solutions.
Data set [3] is described as follows: Thermal stability (decomposition level of the amine in acid-gas-laden absorbent). The class given is physicochemical. Conditions: 160° C., 125 h, 30% by weight amine solution. On the procedure:
A Hastelloy cylinder (10 mL) was initially charged with the absorbent (30% by weight amine solution, 8 mL) and the cylinder was closed. […] The acid gas loading of the solutions was 20 m^3 (STP)/tsolvent of CO2 and 20 m^3 (STP)/tsolvent of H2S. The decomposition level of the amines was calculated from the amine concentration measured by gas chromatography before and after the experiment.

Where [4] appears, read: absorbent: amine 30% by wt. in EG 70% by wt., without acid gas loading.
[5] abbreviates: absorbent: amine 30% by wt. in sulfolane 70% by wt., without acid gas loading.

For `CC(C)(C)NCCOCCO` [TBAEE, 2-(2-tert-butylaminoethoxy)ethanol, reference compound], the Dynamic viscosity in data set [1] (setting [4]) is listed as 17.2 mPa · s; in data set [1] (amine compound itself), 16.9 mPa · s.

On to `CN(C)CCOCCN(C)C` [BDMAEE, bis(2-(N,N-dimethylamino)ethyl) ether], for which the Dynamic viscosity was 12.3 mPa · s in data set [1] (setting [4]), 3.6 mPa · s in data set [1] (setting [5]) and 0.9 mPa · s in data set [1] (amine compound itself). For the same compound, the pKA1 in data set [2] (0.01 mol/kg amine, 20° C.) was found to be 9.7. The pKA2 in data set [2] (0.01 mol/kg amine, 20° C.) is 8.2.

`CN(C)CCOCCNC(C)(C)C` [TBAEEDA, 2-(2-tert-butylaminoethoxy)ethyl-N,N-dimethylamine]: the results for the Dynamic viscosity in data set [1] (setting [5]) and in data set [1] (amine compound itself) were 5.5 mPa · s and 1.5 mPa · s, respectively. For the same compound, the “Thermal stability (comparison in words)” value in data set [3] is recorded as “higher thermal stability than MDEA”. In addition, the pKA1 in data set [2] (0.01 mol/kg amine, 20° C.) came out at 10.4. The pKA2 in data set [2] (0.01 mol/kg amine, 20° C.) is 8.4. The “ΔpKA1 (120-20° C.)” value in data set [2] (difference of pKA1 between 120° C. and 20° C.) was 2.4.

In the case of `CCC(N)(CO)CO` [AEPD, 2-amino-2-ethylpropane-1,3-diol, reference compound], the values for the Dynamic viscosity in data set [1] (setting [4]) and in data set [1] (amine compound itself) were 25.3 mPa · s and 1844 mPa · s, respectively.

Regarding `CN(C)CCN(C)CCN(C)C` [PMDETA, pentamethyldiethylenetriamine], the Dynamic viscosity in data set [1] (absorbent: amine 30% by wt. in TEG 70% by wt., without acid gas loading) was determined as 15.3 mPa · s; in data set [1] (amine compound itself), 1.0 mPa · s. Further, the pKA1 in data set [2] (0.01 mol/kg amine, 20° C.) turned out to be 10.3. Moreover, in data set [2] (0.01 mol/kg amine, 20° C.), the pKA2 amounted to 8.8. Also, in data set [2] (0.01 mol/kg amine, 20° C., 3rd dissociation stage), the pKA3 is recorded as 6.5.
